{"source": "patent US8912194B2", "about": "“CDK inhibitor for the treatment of mesothelioma” (Nerviano Medical Sciences S.R.L., priority 2008, dated 2014)", "key": {"[1]": {"target": "Thropomyosin Receptor Kinase A (TRKA) (Homo sapiens, UniProt P04629)", "sequence (P04629 33-796)": "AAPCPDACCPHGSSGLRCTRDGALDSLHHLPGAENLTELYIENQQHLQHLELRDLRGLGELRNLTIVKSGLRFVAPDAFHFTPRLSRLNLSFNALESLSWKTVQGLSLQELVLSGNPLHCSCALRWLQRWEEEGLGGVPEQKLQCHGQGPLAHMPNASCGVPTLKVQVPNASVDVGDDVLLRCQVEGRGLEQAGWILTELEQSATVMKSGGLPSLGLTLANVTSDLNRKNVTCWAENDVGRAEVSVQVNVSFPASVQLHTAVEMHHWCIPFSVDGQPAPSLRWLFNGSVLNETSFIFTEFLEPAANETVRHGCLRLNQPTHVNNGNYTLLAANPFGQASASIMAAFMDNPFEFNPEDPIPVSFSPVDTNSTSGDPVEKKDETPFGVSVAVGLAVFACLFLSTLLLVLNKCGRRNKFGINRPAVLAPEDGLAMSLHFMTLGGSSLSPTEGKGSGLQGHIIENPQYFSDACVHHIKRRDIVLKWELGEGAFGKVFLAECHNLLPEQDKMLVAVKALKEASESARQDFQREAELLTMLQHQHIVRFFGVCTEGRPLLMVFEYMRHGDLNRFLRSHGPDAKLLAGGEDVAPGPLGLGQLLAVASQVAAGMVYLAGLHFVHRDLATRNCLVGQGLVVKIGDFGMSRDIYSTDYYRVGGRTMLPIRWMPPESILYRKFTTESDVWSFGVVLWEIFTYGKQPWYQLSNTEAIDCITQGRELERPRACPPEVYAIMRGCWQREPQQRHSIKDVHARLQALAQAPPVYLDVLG", "assay": "Scintillation Proximity Assay (SPA) for kinases", "format": "biochemical", "conditions": "read-out: IC50 (printed 1050) towards TRKA", "experimental": "This assay allows measurement of the inhibition of the kinase activity of a specific enzyme obtained with test compound. Different kinases can be tested in parallel.\nA biotinylated substrate is trans-phosphorylated by a specific kinase in the presence of ATP including a γ33-ATP tracer. At the end of the reaction the phosphorylated substrate is then captured using Streptavidin-coated SPA beads. A dense 5M CsCl solution is added and the mixture is incubated for four hours. This causes the SPA beads to float to the top of the CsCl solution containing the unincorporated radiolabelled ATP.\nThe extent of phosphorylation is measured using a β-counter."}, "[2]": {"system": "MSTO-211H mesothelioma cell line", "assay": "Inhibition of cell proliferation (cellular ATP monitoring)", "format": "cell-based", "conditions": "Homo sapiens, 72 hours after treatment", "description": "(§1) MSTO-211H, NCI-H2052 and NCI-H28 mesothelioma cell lines were cultured in RPMI 1640 added with 10% FCS, 2 mM glutamine, 1 mM sodium pyruvate and 10 mM HEPES. For all the experiments cells were seeded at the density of 1×10^4/cm^2, the day after treatment with the compound for the prescribed duration and then collected at the reported times.\n(§2) Cells were washed and counted 72 hours after the treatment. Cell proliferation was determined by a cellular adenosine triphosphate monitoring system. Cell proliferation was compared to control cells. The concentration inhibiting cell proliferation by 50% (IC50) was calculated."}, "[3]": {"system": "NCI-H2052 mesothelioma cell line", "assay": "Inhibition of cell proliferation (cellular ATP monitoring)", "format": "cell-based", "conditions": "Homo sapiens; NCI-H2052, 72 hours after treatment", "description": "as §1, §2"}, "[4]": {"system": "NCI-H28 mesothelioma cell line", "assay": "Inhibition of cell proliferation (cellular ATP monitoring)", "format": "cell-based", "conditions": "Homo sapiens; NCI-H28, 72 hours after treatment", "description": "as §1, §2"}, "[5]": {"system": "MSTO-211H mesothelioma cell line", "assay": "Analysis of cell cycle progression and apoptosis induction (cytofluorimetry, propidium iodide)", "format": "cell-based", "description": "(§3) MSTO-211H, NCI-H2052 and NCI-H28 mesothelioma cell lines were cultured in RPMI 1640 added with 10% FCS, 2 mM glutamine, 1 mM sodium pyruvate and 10 mM HEPES. For all the experiments cells were seeded at the density of 1×10^4/cm^2, the day after treatment with the compound for the prescribed duration and then collected at the reported times. Cells were washed 24 hours after the treatment, fixed with cold methanol 70% and stored at −20° C. Fixed cells were washed with PBS to remove methanol and were stained with 25 μg/mL of propidium iodide, 5 μg/mL of RNase, and 0.125 μg/mL of Nonidet P 40. Cells were kept at room temperature for 60 minutes in the dark and were analyzed by BD FACSCalibur™ system interfaced to a Macintosh G4 computer with BD CellQuest™ 3.3 software. All doublets or aggregates were removed during analysis by an appropriate gate on an FL3-A/FL3-W dot plot and DNA content analysis was performed in ≧10,000 gated cells. DNA histograms (shown in FIG. 1) were analyzed using ModFit LT™"}, "[6]": {"system": "NCI-H2052 mesothelioma cell line", "assay": "Analysis of cell cycle progression and apoptosis induction (cytofluorimetry, propidium iodide)", "format": "cell-based", "conditions": "NCI-H2052, 24 hours after treatment, cytofluorimetric analysis", "description": "as §3"}, "[7]": {"system": "NCI-H28 mesothelioma cell line", "assay": "Analysis of cell cycle progression and apoptosis induction (cytofluorimetry, propidium iodide)", "format": "cell-based", "conditions": "NCI-H28, 24 hours after treatment, cytofluorimetric analysis", "description": "as §3"}, "[8]": {"system": "mesothelioma cells (MSTO-211H, NCI-H2052, NCI-H28)", "assay": "Inhibition of cell proliferation, summary over all tested mesothelioma cells", "format": "cell-based", "conditions": "all the tested mesothelioma cells, 72 hours; read-out: IC50 range, inhibition of proliferation", "description": "as §1, §2"}, "[9]": {"system": "Rb phosphorylation, cyclin A and cdc6 expression in NCI-H28 cells", "assay": "Western blot analysis of cell cycle related markers", "format": "cell-based", "conditions": "1 and 3 μM, 24 hours, FIG. 2", "description": "(§4) Treated cells were lysed by adding SDS sample buffer (0.125M Tris-HCl pH6.8, 5% SDS). Samples were heated to 95° C. for 5 minutes and then sonicated using an Ultrasonic 2000 ARTEK. Lysed cells were centrifuged at 13,000 RPM for 10 minutes. Protein quantification was determined using BCA buffer (Pierce) and a BSA standard curve. 20 μg protein extract per well were loaded and separated by SDS-PAGE gel 7.5-10% (PAGE-PLUS 40% concentrate AMRESCO). The gel was blotted onto nitrocellulose filters (Hybond Amersham) in a buffer containing 25 mM Tris HCl pH 8.3, 192 mM Glycine and 20% methanol. The filters were saturated in 5% low-fat milk in TBS containing 0.1% Tween 20 (TBS-T) for 2 hours at room temperature and than incubated overnight at 4° C. with the primary monoclonal followed by washes in TBS-T and incubation using a secondary anti mouse antibody. The bands were visualized using the “Super Signal West Pico” Pierce."}, "[10]": {"system": "phosphorylation of AKT, S6 and MAPK in NCI-H28 cells", "assay": "Western blot analysis of tyrosine kinase growth factor receptor mediated pathways", "format": "cell-based", "conditions": "1 and 3 μM, FIG. 2", "description": "as §4"}, "[11]": {"system": "cell cycle related markers in mesothelioma cell lines", "assay": "Western blot analysis of cell cycle related markers, all cell lines", "format": "cell-based", "conditions": "all mesothelioma cell lines tested", "description": "as §4"}, "mesothelioma": {"system": "mesothelioma", "conditions": "single agent, mesothelioma patients; cited from earlier work"}}}
{"molecule": "CNC(=O)c1nn(C)c2c1C(C)(C)Cc1cnc(Nc3ccc(N4CCN(C)CC4)cc3)nc1-2", "note": "[compound of formula (I), 8-[4-(4-methyl-piperazin-1-yl)-phenylamino]-1,4,4-trimethyl-4,5-dihydro-1H-pyrazolo[4,3-h]quinazoline-3-carboxylic acid methylamide]", "values": [{"measurement": "IC50", "setting": "[1]", "result": 53, "unit": "nM"}, {"measurement": "IC50", "setting": "[2]", "result": "0.23 ± 0.1", "unit": "µM"}, {"measurement": "IC50", "setting": "[3]", "result": "0.74 ± 0.37", "unit": "µM"}, {"measurement": "IC50", "setting": "[4]", "result": "1.56 ± 0.52", "unit": "µM"}, {"measurement": "Effect on cell cycle progression", "setting": "[5]; 1 μM, 24 hours, FIG. 1", "result": "G1 block"}, {"measurement": "Sub G1 peak (induction of apoptosis)", "setting": "[5]; 3 μM, 24 hours, FIG. 1", "result": "increase of the sub G1 peak"}, {"measurement": "Sub G1 % (percentage of cells with a sub G1 DNA content, apoptosis)", "setting": "[5]; 24 hours after treatment, cytofluorimetric analysis", "result": 24, "unit": "%"}, {"measurement": "Sub G1 % (percentage of cells with a sub G1 DNA content, apoptosis)", "setting": "[6]", "result": 14, "unit": "%"}, {"measurement": "Sub G1 % (percentage of cells with a sub G1 DNA content, apoptosis)", "setting": "[7]", "result": 5, "unit": "%"}, {"measurement": "IC50", "setting": "[8]", "result": "230 to 1560", "unit": "nM"}, {"measurement": "Rb phosphorylation", "setting": "[9]; NCI-H28 cells (mutated in p16/CDKN2A)", "result": "strong inhibition"}, {"measurement": "cdc6 expression", "setting": "[9]; NCI-H28 cells", "result": "strong inhibition"}, {"measurement": "cyclin A expression", "setting": "[9]; NCI-H28 cells", "result": "strong inhibition"}, {"measurement": "phosphorylation of AKT", "setting": "[10]", "result": "Inhibition in phosphorylation"}, {"measurement": "phosphorylation of MAPK", "setting": "[10]", "result": "Inhibition in phosphorylation"}, {"measurement": "phosphorylation of S6", "setting": "[10]", "result": "Inhibition in phosphorylation"}, {"measurement": "cell cycle related markers", "setting": "[11]", "result": "decrease"}]}
{"molecule": "Nc1nc2[nH]cc(CCc3ccc(C(=O)N[C@@H](CCC(=O)O)C(=O)O)cc3)c2c(=O)[nH]1", "note": "[pemetrexed]", "values": [{"measurement": "median overall survival", "setting": "mesothelioma", "result": 10.7, "unit": "months"}, {"measurement": "response rate", "setting": "mesothelioma", "result": 14.1, "unit": "%"}]}
